Experimental data published in US20150352108A1, “AMINO-PYRIMIDINE COMPOUNDS AS INHIBITORS OF TBK1 AND/OR IKK EPSILON” (Alzheimer's Institute of America, priority 2009, published 2015).
Read-outs that look alike come from different tables or passages of the source.

How the values were obtained:
IKKε = target: T1, IKKε (Homo sapiens, UniProt Q14164); test: In-vitro IKKε kinase assay ([γ33]ATP filter-plate); type: biochemical
T1 construct: His-tag; made in house; host or cells: Sf9 insect cells
T1 sequence (Q14164 1-716): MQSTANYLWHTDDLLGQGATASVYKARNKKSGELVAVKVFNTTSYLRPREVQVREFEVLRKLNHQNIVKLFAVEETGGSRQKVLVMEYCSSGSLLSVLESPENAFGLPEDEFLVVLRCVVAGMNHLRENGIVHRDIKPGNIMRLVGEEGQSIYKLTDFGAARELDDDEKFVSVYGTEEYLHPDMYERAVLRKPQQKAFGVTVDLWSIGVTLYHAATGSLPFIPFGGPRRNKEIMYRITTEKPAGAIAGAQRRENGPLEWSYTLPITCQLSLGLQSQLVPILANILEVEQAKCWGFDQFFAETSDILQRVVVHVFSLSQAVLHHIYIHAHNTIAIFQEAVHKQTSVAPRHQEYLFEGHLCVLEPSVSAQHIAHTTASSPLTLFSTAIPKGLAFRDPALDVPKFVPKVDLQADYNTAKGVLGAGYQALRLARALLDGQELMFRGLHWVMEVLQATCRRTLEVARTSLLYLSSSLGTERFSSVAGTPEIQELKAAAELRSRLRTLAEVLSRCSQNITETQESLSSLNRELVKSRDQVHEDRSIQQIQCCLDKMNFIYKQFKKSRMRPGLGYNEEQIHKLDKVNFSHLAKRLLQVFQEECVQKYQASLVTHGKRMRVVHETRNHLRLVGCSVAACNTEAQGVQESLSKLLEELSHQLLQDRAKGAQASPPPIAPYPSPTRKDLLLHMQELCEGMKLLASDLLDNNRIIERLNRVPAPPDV
In short: (§1)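 Phosphorylation of casein or myelin basic protein was counted by P-81 filter capture after 30-45 min reactions stopped with phosphoric acid, with counts normalized to DMSO after background subtraction. ATP was twice Km: 60 μM for TBK1 and 32 μM for IKKε, plus [γ33]ATP. Sf9-expressed His-tag enzymes were used at normal/sensitized levels of 0.1/0.02 μg/ml (TBK1) and 0.1/0.015 μg/ml (IKKε).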

TBK1 = target: T2, TBK1 (Homo sapiens, UniProt Q9UHD2); test: In-vitro TBK1 kinase assay ([γ33]ATP filter-plate); type: biochemical
T2 construct: His-tag; made in house; host or cells: Sf9 insect cells
T2 sequence (Q9UHD2 1-729): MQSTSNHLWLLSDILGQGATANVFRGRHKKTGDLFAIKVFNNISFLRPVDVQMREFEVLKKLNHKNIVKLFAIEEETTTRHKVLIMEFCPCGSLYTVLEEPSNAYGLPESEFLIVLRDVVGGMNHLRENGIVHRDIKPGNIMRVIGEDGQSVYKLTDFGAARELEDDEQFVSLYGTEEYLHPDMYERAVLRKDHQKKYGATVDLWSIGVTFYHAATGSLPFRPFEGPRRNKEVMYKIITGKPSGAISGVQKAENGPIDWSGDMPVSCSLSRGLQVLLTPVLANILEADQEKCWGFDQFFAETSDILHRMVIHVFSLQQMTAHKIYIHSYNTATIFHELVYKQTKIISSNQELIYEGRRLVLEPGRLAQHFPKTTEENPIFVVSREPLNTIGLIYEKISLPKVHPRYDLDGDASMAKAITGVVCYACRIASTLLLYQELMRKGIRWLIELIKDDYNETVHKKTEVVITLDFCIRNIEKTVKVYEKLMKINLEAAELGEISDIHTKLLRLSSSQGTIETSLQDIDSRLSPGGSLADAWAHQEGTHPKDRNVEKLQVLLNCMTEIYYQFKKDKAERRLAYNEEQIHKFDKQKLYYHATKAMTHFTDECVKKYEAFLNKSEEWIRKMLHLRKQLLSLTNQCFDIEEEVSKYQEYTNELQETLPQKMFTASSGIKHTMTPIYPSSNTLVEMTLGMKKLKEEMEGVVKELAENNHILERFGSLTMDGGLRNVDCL
In short: as §1

[1] = text bins, read-out: IC50 for inhibition of the kinase activity of IKKε
[2] = text bins, read-out: IC50 for inhibition of the kinase activity of TBK1

SMILES: COc1ccc(-c2ccnc(Nc3ccc(S(=O)(=O)NCCN)c(OC)c3)n2)cc1C#N [compound 366, N-(2-Aminoethyl)-4-{[4-(3-cyano-4-methoxyphenyl)pyrimidin-2-yl]amino}-2-methoxybenzene-sulfonamide]
- IC50 (IKKε; [1]): 5 to 50 nM
- IC50 (TBK1; [2]): 10 to 100 nM

SMILES: N#Cc1cc(-c2ccnc(Nc3ccc(CS(=O)(=O)NCCO)cc3)n2)ccc1NC(=O)C1CC1 [compound 566, N-(2-Cyano-4-{2-[(4-{[(2-hydroxyethyl)sulfamoyl]methyl}phenyl)amino]pyrimidin-4-yl}phenyl) cyclopropane-carboxamide]
- IC50 (IKKε; [1]): < 5 nM
- IC50 (TBK1; [2]): < 10 nM

SMILES: N#Cc1cc(-c2ccnc(Nc3ccc4c(c3)OCO4)n2)ccc1OC1CCOCC1 [Example 23, 5-[2-(1,3-benzodioxol-5-ylamino)pyrimidin-4-yl]-2-(tetrahydro-2H-pyran-4-yloxy)benzonitrile]
- IC50 (IKKε; [1]): 5 to 50 nM
- IC50 (TBK1; [2]): < 10 nM

SMILES: COc1ccc(-c2ccnc(Nc3cc(CN4CCOCC4)c(OC)c(OC)c3)n2)cc1C#N [Example 226, 5-(2-{[3,4-Dimethoxy-5-(morpholin-4-ylmethyl)phenyl]amino}pyrimidin-4-yl)-2-methoxybenzonitrile]
- IC50 (IKKε; [1]): 5 to 50 nM
- IC50 (TBK1; [2]): 10 to 100 nM

SMILES: N#Cc1cc(-c2ccnc(Nc3ccc(N4CCOCC4)cc3)n2)ccc1OCCCN [compound 447, 2-(3-Aminopropoxy)-5-(2-{[4-(morpholin-4-yl)phenyl]amino}pyrimidin-4-yl)benzonitrile]
- IC50 (IKKε; [1]): 5 to 50 nM
- IC50 (TBK1; [2]): 10 to 100 nM

SMILES: CC(C)Nc1ccc(-c2ccnc(Nc3ccc(N4CCOCC4)cc3)n2)cc1C#N [Example 211, 5-(2-{[4-(Morpholin-4-yl)phenyl]amino}pyrimidin-4-yl)-2-(propan-2-ylamino)benzonitrile]
- IC50 (IKKε; [1]): < 5 nM
- IC50 (TBK1; [2]): < 10 nM

SMILES: CC(C)(C)Oc1ccc(-c2ccnc(Nc3ccc(N4CCOCC4)cc3)n2)cc1C#N [Example 164, 2-tert-Butyoxy-5-(2-{[4-(morpholin-4-yl)phenyl]amino}pyrimidin-4-yl)benzonitrile]
- IC50 (IKKε; [1]): < 5 nM
- IC50 (TBK1; [2]): < 10 nM

SMILES: COc1ccc(-c2ccnc(Nc3cccc(CN(C)CC(=O)N(C)C)c3)n2)cc1C#N [Example 67, N~2~-(3-{[4-(3-Cyano-4-methoxyphenyl)pyrimidin-2-yl]amino}benzyl)-N,N,N~2~- trimethylglycinamide]
- IC50 (IKKε; [1]): 5 to 50 nM
- IC50 (TBK1; [2]): 10 to 100 nM

SMILES: N#Cc1cc(-c2ccnc(Nc3ccc(NC(=O)Nc4ccncc4)cc3)n2)ccc1OC1CCOCC1 [Example 17, 1-[4-({4-[3-cyano-4-(tetrahydro-2H-pyran-4-yloxy)phenyl]pyrimidin-2-yl}amino)phenyl]-3-pyridin-4-ylurea]
- IC50 (IKKε; [1]): 5 to 50 nM
- IC50 (TBK1; [2]): 10 to 100 nM

SMILES: CNc1ccc(-c2ccnc(Nc3ccc(N4CCOCC4)cc3)n2)cc1C#N [Example 218, 2-(Methylamino)-5-(2-{[4-(morpholin-4-yl)phenyl]amino}pyrimidin-4-yl)benzonitrile]
- IC50 (IKKε; [1]): 5 to 50 nM
- IC50 (TBK1; [2]): < 10 nM

SMILES: N#Cc1cc(-c2ccnc(Nc3ccc(N4CCOCC4)cc3)n2)ccc1OCCN [Example 220, 2-(2-aminoethoxy)-5-(2-{[4-(morpholin-4-yl)phenyl]amino}pyrimidin-4-yl)benzonitrile]
- IC50 (IKKε; [1]): 5 to 50 nM
- IC50 (TBK1; [2]): < 10 nM

SMILES: CC(C)COc1ccc(-c2ccnc(Nc3cccc(CS(=O)(=O)NCCO)c3)n2)cc1C#N [compound 534, 1-[3-({4-[3-Cyano-4-(2-methylpropoxy)phenyl]pyrimidin-2-yl}amino)phenyl]-N-(2-hydroxyethyl) methanesulfonamide]
- IC50 (IKKε; Table 3, read-out: IKKε IC50): 0.8 nM
- IC50 (IKKε; [1]): < 5 nM
- IC50 (TBK1; Table 3, read-out: TBK1 IC50): 0.4 nM
- IC50 (TBK1; [2]): < 10 nM

SMILES: Cc1ccc(-c2ccnc(Nc3ccc(N4CCOCC4)cc3)n2)cc1C#N [Example 269, 2-Methyl-5-(2-{[4-(morpholin-4-yl)phenyl]amino}pyrimidin-4-yl)benzonitrile]
- IC50 (IKKε; [1]): 5 to 50 nM
- IC50 (TBK1; [2]): < 10 nM

SMILES: COc1cc(Nc2nc(-c3ccc(OC4CCOCC4)c(C#N)c3)c3nc[nH]c3n2)ccc1N1CCOCC1 [compound 633, 5-(2-{[3-Methoxy-4-(morpholin-4-yl)phenyl]amino}-3H-purin-6-yl)-2-(tetrahydro-2H-pyran-4-yloxy)benzonitrile]
- IC50 (IKKε; [1]): 5 to 50 nM
- IC50 (TBK1; [2]): < 10 nM

SMILES: COc1ccc(-c2ccnc(Nc3cccc(OCCN4CCOCC4)c3)n2)cc1C#N [compound 314, 2-Methoxy-5-[2-({3-[2-(morpholin-4-yl)ethoxy]phenyl}amino)pyrimidin-4-yl]benzonitrile]
- IC50 (IKKε; [1]): 5 to 50 nM
- IC50 (TBK1; [2]): 10 to 100 nM

SMILES: N#Cc1cc(-c2ccnc(Nc3ccc(N4CCOCC4)cc3)n2)ccc1OCCCO [Example 210, 2-(3-Hydroxypropoxy)-5-(2-{[4-(morpholin-4-yl)phenyl]amino}pyrimidin-4-yl)benzonitrile]
- IC50 (IKKε; [1]): < 5 nM
- IC50 (TBK1; [2]): < 10 nM

SMILES: COc1ccc(Nc2nccc(-c3ccc(NC(=O)C(C)C)c(C#N)c3)n2)cc1OCCCN1CCOCC1 [compound 433, N-{2-cyano-4-[2-({4-methoxy-3-[3-(morpholin-4-yl)propoxy]phenyl}amino)pyrimidin-4-yl]phenyl}-2-methylpropanamide]
- IC50 (IKKε; [1]): 5 to 50 nM
- IC50 (TBK1; [2]): < 10 nM

SMILES: N#Cc1cc(-c2ccnc(Nc3cccc(N4CCOCC4)c3)n2)ccc1OC1CCOCC1 [compound 585, 5-(2-{[3-(Morpholin-4-yl)phenyl]amino}pyrimidin-4-yl)-2-(tetrahydro-2H-pyran-4-yloxy)benzonitrile]
- IC50 (IKKε; Table 3, read-out: IKKε IC50): 0.4 nM
- IC50 (IKKε; [1]): < 5 nM
- IC50 (TBK1; Table 3, read-out: TBK1 IC50): 1.9 nM
- IC50 (TBK1; [2]): < 10 nM

SMILES: COc1ccc(-c2ccnc(Nc3ccc(CN4CCOCC4)cc3)n2)cc1C#N [Example 251, 2-Methoxy-5-(2-{[4-(morpholin-4-ylmethyl)phenyl]amino}pyrimidin-4-yl)benzonitrile]
- IC50 (IKKε; [1]): 5 to 50 nM
- IC50 (TBK1; [2]): 10 to 100 nM

SMILES: CN(C)c1cccc(Nc2nccc(-c3ccc(OC4CCOCC4)c(C#N)c3)n2)c1 [compound 539, 5-(2-{[3-(Dimethylamino)phenyl]amino}pyrimidin-4-yl)-2-(tetrahydro-2H-pyran-4-yloxy)benzonitrile]
- IC50 (IKKε; [1]): < 5 nM
- IC50 (TBK1; [2]): < 10 nM

SMILES: COc1ccc(Nc2nccc(-c3ccc(NC(C)=O)c(C#N)c3)n2)cc1OC [Example 136, N-(2-Cyano-4-{2-[(3,4-dimethoxyphenyl)amino]pyrimidin-4-yl}phenyl)acetamide]
- IC50 (IKKε; [1]): 5 to 50 nM
- IC50 (TBK1; [2]): 10 to 100 nM

SMILES: COCC(=O)Nc1cc(Nc2nccc(-c3ccc(OC)c(C#N)c3)n2)cc(OC)c1 [Example 278, N-(3-{[4-(3-Cyano-4-methoxyphenyl)pyrimidin-2-yl]amino}-5-methoxyphenyl)-2-methoxyacetamide]
- IC50 (IKKε; [1]): 5 to 50 nM
- IC50 (TBK1; [2]): 10 to 100 nM

SMILES: CC(C)(C)OC(=O)NCc1ccc(Nc2nccc(-c3ccc(OC4CCOCC4)c(C#N)c3)n2)cc1 [compound 491, tert-butyl [4-({4-[3-cyano-4-(tetrahydro-2H-pyran-4-yloxy)phenyl]pyrimidin-2-yl}amino)benzyl] carbamate]
- IC50 (IKKε; [1]): 5 to 50 nM
- IC50 (TBK1; [2]): < 10 nM

SMILES: N#Cc1cc(-c2ccnc(Nc3ccc(CS(=O)(=O)N4CCCC4)cc3)n2)ccc1OC1CCOCC1 [compound 403, 5-[2-({4-[(Pyrrolidin-1-ylsulfonyl)methyl]phenyl}amino)pyrimidin-4-yl]-2-(tetrahydro-2H-pyran-4-yloxy)benzonitrile]
- IC50 (IKKε; [1]): < 5 nM
- IC50 (TBK1; [2]): < 10 nM

SMILES: N#Cc1cc(-c2ccnc(Nc3ccc(N4CCOCC4)cc3)n2)ccc1NCc1ccccc1 [Example 224]
- IC50 (IKKε; [1]): 5 to 50 nM
- IC50 (TBK1; [2]): 10 to 100 nM
